Results published in US20210253557A1, “SUBSTITUTED TRIAZOLE DERIVATIVES AND USES THEREOF” (Bayer Pharma Aktiengesellschaft, priority 2017, published 2021).
Where a name gives a salt, the structure may show the parent alone.

Experiments:
[1] = biological target: T1, human V1a receptor (Homo sapiens, UniProt P37288); experiment: Cellular in vitro assay for determining vasopressin receptor activity (V1a, aequorin luminescence); assay type: cell-based; conditions: for IC50: CHO cell line transfected with the human V1a receptor, [Arg8]-vasopressin at EC50 concentration, read-out: IC50 hV1a; for ratio IC50 hV2/hV1a: selectivity ratio of IC50 hV2 to IC50 hV1a
T1 construct: expressed in transfected cells; host or cells: CHO K1 (ATCC), also stably transfected with a modified aequorin
T1 sequence (P37288 whole entry): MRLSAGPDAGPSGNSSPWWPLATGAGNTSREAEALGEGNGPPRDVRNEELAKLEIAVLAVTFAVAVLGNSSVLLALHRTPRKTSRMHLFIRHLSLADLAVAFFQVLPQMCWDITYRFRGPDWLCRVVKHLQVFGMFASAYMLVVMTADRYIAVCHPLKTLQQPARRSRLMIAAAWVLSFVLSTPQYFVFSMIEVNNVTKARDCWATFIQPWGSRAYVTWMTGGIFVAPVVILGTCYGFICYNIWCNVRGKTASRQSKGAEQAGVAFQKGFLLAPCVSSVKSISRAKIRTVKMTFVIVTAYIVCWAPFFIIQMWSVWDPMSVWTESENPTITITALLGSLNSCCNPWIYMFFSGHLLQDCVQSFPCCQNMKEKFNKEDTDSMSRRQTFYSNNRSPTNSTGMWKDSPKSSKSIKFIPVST
Protocol: (§1) B-1. Cellular In Vitro Assay for Determining Vasopressin Receptor Activity
(§2) The identification of agonists and antagonists of the V1a and V2 vasopressin receptors from humans, rats and dogs as well as the quantification of the activity of the compounds of the invention is carried out using recombinant cell lines. These cell lines originally derive from a hamster's ovary epithelial cell (Chinese Hamster Ovary, CHO K1, ATCC: American Type Culture Collection, Manassas, Va. 20108, USA). The test cell lines constitutively express the human, rat or dog V1a or V2 receptors. In case of the Gαq-coupled V1a receptors, cells are also stably transfected with a modified form of the calcium-sensitive photoproteins aequorin (human and rat V1a) or obelin (dog V1a), which, after reconstitution with the cofactor coelenterazine, emit light when there are increases in free calcium concentrations [Rizzuto R, Simpson A W, Brini M, Pozzan T, Nature 358, 325-327 (1992); Illarionov B A, Bondar V S, Illarionova V A, Vysotski E S, Gene 153 (2), 273-274 (1995)]. The resulting vasopressin receptor cells react to stimulation of the recombinantly expressed V1a receptors by intracellular release of calcium ions, which can be quantified by the resulting photoprotein luminescence. The Gs-coupled V2 receptors are stably transfected into cell lines expressing the gene for firefly luciferase under control of a CRE-responsible promoter. Activation of V2 receptors induces the activation of the CRE-responsive promoter via cAMP increase, thereby inducing the expression of firefly luciferase. The light emitted by photoproteins of V1a cell lines as well as the light emitted by firefly luciferase of V2 cell lines corresponds to the activation or inhibition of the respective vasopressin receptor. The bioluminescence of the cell lines is detected using a suitable luminometer [Milligan G, Marshall F, Rees S, Trends in Pharmacological Sciences 17, 235-237 (1996)].
Vasopressin V1a receptor cell lines:
On the day before the assay, the cells are plated out in culture medium (DMEM/F12, 2% FCS, 2 mM glutamine, 10 mM HEPES, 5 μg/ml coelenterazine) in 384-well microtiter plates and kept in a cell incubator (96% humidity, 5% v/v CO2, 37° C.). On the day of the assay, test compounds in various concentrations are placed for 10 minutes in the wells of the microtiter plate before the agonist [Arg^8]-vasopressin at EC50 concentration is added. The resulting light signal is measured immediately in a luminometer.
(§3) Table 1A below lists individual IC50 values for the compounds of the invention (including racemic mixtures as well as separated enantiomers) that were obtained from cell lines transfected with the human V1a or V2 receptor: […]

[2] = biological target: T2, human V2 receptor (Homo sapiens, UniProt P30518); experiment: Cellular in vitro assay for determining vasopressin receptor activity (V2, CRE-luciferase); assay type: cell-based; conditions: CHO cell line transfected with the human V2 receptor; [Arg8]-vasopressin at EC50 concentration; read-out: IC50 hV2
T2 construct: expressed in transfected cells; host or cells: CHO K1 (ATCC) expressing firefly luciferase under a CRE-responsive promoter
T2 sequence (P30518 whole entry): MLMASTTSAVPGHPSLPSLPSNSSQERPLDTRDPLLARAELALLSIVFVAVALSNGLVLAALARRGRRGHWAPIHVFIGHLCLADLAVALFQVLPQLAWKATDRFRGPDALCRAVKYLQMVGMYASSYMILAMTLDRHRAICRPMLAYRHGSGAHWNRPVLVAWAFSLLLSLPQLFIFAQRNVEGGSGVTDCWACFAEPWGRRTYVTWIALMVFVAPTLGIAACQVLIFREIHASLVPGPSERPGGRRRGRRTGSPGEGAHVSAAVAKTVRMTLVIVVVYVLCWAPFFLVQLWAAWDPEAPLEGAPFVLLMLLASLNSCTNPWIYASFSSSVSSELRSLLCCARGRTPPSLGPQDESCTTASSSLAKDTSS
Protocol: as §1, §2
Vasopressin V2 receptor cell lines:
On the day before the assay, the cells are plated out in culture medium (DMEM/F12, 2% FCS, 2 mM glutamine, 10 mM HEPES) in 384-well microtiter plates and kept in a cell incubator (96% humidity, 5% v/v CO2, 37° C.). On the day of the assay, test compounds in various concentrations and the agonist [Arg^8]-vasopressin at EC50 concentration are added together to the wells, and plates are incubated for 3 hours in a cell incubator. Upon addition of the cell lysis reagent Triton™ and the substrate luciferin, luminescence of firefly luciferase is measured in a luminometer.
as §3

| IC50 [1] [nM] | ratio IC50 hV2/hV1a [1] | IC50 [2] [nM] | Structure (SMILES) |
| --- | --- | --- | --- |
| 18.3 | 0.3 | 5.29 | CC(N)c1nc(Cn2nc(-c3ccc(Cl)cc3)n(C[C@H](O)C(F)(F)F)c2=O)nn1-c1cccc(F)c1 (mixture of isomers) [Example 53, 2-({5-[1-Aminoethyl]-1-(3-fluorophenyl)-1H-1,2,4-triazol-3-yl}methyl)-5-(4-chlorophenyl)-4-[(2S)-3,3,3-trifluoro-2-hydroxypropyl]-2,4-dihydro-3H-1,2,4-triazol-3-one trifluoroacetate] |
| 1.19 | 2.3 | 2.74 | Cc1ccccc1-n1nc(Cn2nc(-c3ccc(Cl)cc3)n(C[C@H](O)C(F)(F)F)c2=O)nc1C(C)N (mixture of isomers) [Example 59, 2-({5-[1-Aminoethyl]-1-(2-methylphenyl)-1H-1,2,4-triazol-3-yl}methyl)-5-(4-chlorophenyl)-4-[(2S)-3,3,3-trifluoro-2-hydroxypropyl]-2,4-dihydro-3H-1,2,4-triazol-3-one trifluoroacetate] |
| 0.74 | 4.3 | 3.17 | CC(N)c1nc(Cn2nc(-c3ccc(Cl)cc3)n(C[C@H](O)C(F)(F)F)c2=O)nn1-c1ccccc1Cl (mixture of isomers) [Example 60, 2-({5-[1-Aminoethyl]-1-(2-chlorophenyl)-1H-1,2,4-triazol-3-yl}methyl)-5-(4-chlorophenyl)-4-[(2S)-3,3,3-trifluoro-2-hydroxypropyl]-2,4-dihydro-3H-1,2,4-triazol-3-one trifluoroacetate] |
| 1.8 | 9.8 | 17.7 | CC(=O)NC(C)c1nc(Cn2nc(-c3ccc(Cl)cc3)n(C[C@H](O)C(F)(F)F)c2=O)nn1-c1ccccc1Cl (mixture of isomers) [Example 64, N-{1-[1-(2-Chlorophenyl)-3-({3-(4-chlorophenyl)-5-oxo-4-[(2S)-3,3,3-trifluoro-2-hydroxypropyl]-4,5-dihydro-1H-1,2,4-triazol-1-yl}methyl)-1H-1,2,4-triazol-5-yl]ethyl}acetamide] |
| 0.83 | 2.9 | 2.43 | CC(NS(C)(=O)=O)c1nc(Cn2nc(-c3ccc(Cl)cc3)n(C[C@H](O)C(F)(F)F)c2=O)nn1-c1ccccc1Cl (mixture of isomers) [Example 67, N-{1-[1-(2-Chlorophenyl)-3-({3-(4-chlorophenyl)-5-oxo-4-[(2S)-3,3,3-trifluoro-2-hydroxypropyl]-4,5-dihydro-1H-1,2,4-triazol-1-yl}methyl)-1H-1,2,4-triazol-5-yl]ethyl}methanesulfonamide] |
| 0.81 | 8.7 | 7.03 | CN1C(=O)CCC1c1nc(Cn2nc(-c3ccc(Cl)cc3)n(C[C@H](O)C(F)(F)F)c2=O)nn1-c1ccccc1Cl (mixture of isomers) [Example 70, 5-(4-Chlorophenyl)-2-{[1-(2-chlorophenyl)-5-(1-methyl-5-oxopyrrolidin-2-yl)-1H-1,2,4-triazol-3-yl]methyl}-4-[(2S)-3,3,3-trifluoro-2-hydroxypropyl]-2,4-dihydro-3H-1,2,4-triazol-3-one] |
| 1.56 | 5.5 | 8.6 | CC(NC(=O)C(F)(F)F)c1nc(Cn2nc(-c3ccc(Cl)cc3)n(C[C@H](O)C(F)(F)F)c2=O)nn1-c1ccccc1Cl (mixture of isomers) [Example 73, N-{1-[1-(2-Chlorophenyl)-3-({3-(4-chlorophenyl)-5-oxo-4-[(2S)-3,3,3-trifluoro-2-hydroxypropyl]-4,5-dihydro-1H-1,2,4-triazol-1-yl}methyl)-1H-1,2,4-triazol-5-yl]ethyl}-2,2,2-trifluoroacetamide] |
| 1.25 | 6.4 | 7.95 | NC(CO)c1nc(Cn2nc(-c3ccc(Cl)cc3)n(C[C@H](O)C(F)(F)F)c2=O)nn1-c1ccccc1Cl (mixture of isomers) [Example 81, 2-({5-[1-Amino-2-hydroxyethyl]-1-(2-chlorophenyl)-1H-1,2,4-triazol-3-yl}methyl)-5-(4-chlorophenyl)-4-[(2S)-3,3,3-trifluoro-2-hydroxypropyl]-2,4-dihydro-3H-1,2,4-triazol-3-one hydrochloride] |
| 0.35 | 6.4 | 2.25 | CS(=O)(=O)NC(CO)c1nc(Cn2nc(-c3ccc(Cl)cc3)n(C[C@H](O)C(F)(F)F)c2=O)nn1-c1ccccc1Cl (mixture of isomers) [Example 85, N-{1-[1-(2-Chlorophenyl)-3-({3-(4-chlorophenyl)-5-oxo-4-[(2S)-3,3,3-trifluoro-2-hydroxypropyl]-4,5-dihydro-1H-1,2,4-triazol-1-yl}methyl)-1H-1,2,4-triazol-5-yl]-2-hydroxyethyl}-methanesulfonamide] |
| 0.71 | 12.5 | 8.9 | CC(=O)NC(CO)c1nc(Cn2nc(-c3ccc(Cl)cc3)n(C[C@H](O)C(F)(F)F)c2=O)nn1-c1ccccc1Cl (mixture of isomers) [Example 91, N-{1-[1-(2-Chlorophenyl)-3-({3-(4-chlorophenyl)-5-oxo-4-[(2S)-3,3,3-trifluoro-2-hydroxypropyl]-4,5-dihydro-1H-1,2,4-triazol-1-yl}methyl)-1H-1,2,4-triazol-5-yl]-2-hydroxyethyl}acetamide] |

| Structure (SMILES) | IC50 [1] [nM] | ratio IC50 hV2/hV1a [1] | IC50 [2] [nM] |
| --- | --- | --- | --- |
| CC(C)(C)OCC(N)c1nc(Cn2nc(-c3ccc(Cl)cc3)n(C[C@H](O)C(F)(F)F)c2=O)nn1-c1ccccc1Cl (mixture of isomers) [Example 80, 2-({5-[1-Amino-2-tert-butoxyethyl]-1-(2-chlorophenyl)-1H-1,2,4-triazol-3-yl}methyl)-5-(4-chlorophenyl)-4-[(2S)-3,3,3-trifluoro-2-hydroxypropyl]-2,4-dihydro-3H-1,2,4-triazol-3-one] | 0.61 | 31.4 | 19 |
| CC(C)(C)OCC(NS(C)(=O)=O)c1nc(Cn2nc(-c3ccc(Cl)cc3)n(C[C@H](O)C(F)(F)F)c2=O)nn1-c1ccccc1Cl (mixture of isomers) [Example 82, N-{2-tert-Butoxy-1-[1-(2-chlorophenyl)-3-({3-(4-chlorophenyl)-5-oxo-4-[(2S)-3,3,3-trifluoro-2-hydroxypropyl]-4,5-dihydro-1H-1,2,4-triazol-1-yl}methyl)-1H-1,2,4-triazol-5-yl]ethyl}methanesulfonamide] | 0.64 | 75.6 | 48 |
| CC(=O)NC(COC(C)(C)C)c1nc(Cn2nc(-c3ccc(Cl)cc3)n(C[C@H](O)C(F)(F)F)c2=O)nn1-c1ccccc1Cl (mixture of isomers) [Example 88, N-{2-tert-Butoxy-1-[1-(2-chlorophenyl)-3-({3-(4-chlorophenyl)-5-oxo-4-[(2S)-3,3,3-trifluoro-2-hydroxypropyl]-4,5-dihydro-1H-1,2,4-triazol-1-yl}methyl)-1H-1,2,4-triazol-5-yl]ethyl}acetamide] | 1.5 | 30.3 | 45.5 |
| CC(C)(C)OCC(NC(=O)C(F)(F)F)c1nc(Cn2nc(-c3ccc(Cl)cc3)n(C[C@H](O)C(F)(F)F)c2=O)nn1-c1ccccc1Cl (mixture of isomers) [Example 94, N-{2-tert-Butoxy-1-[1-(2-chlorophenyl)-3-({3-(4-chlorophenyl)-5-oxo-4-[(2S)-3,3,3-trifluoro-2-hydroxypropyl]-4,5-dihydro-1H-1,2,4-triazol-1-yl}methyl)-1H-1,2,4-triazol-5-yl]ethyl}-2,2,2-trifluoroacetamide] | 1.1 | 25.0 | 27.5 |
